According to patent publication US20250215028A1, “SYNTHETIC GLYCEROPHOSPHOLIPIDS COMPRISING AT LEAST ONE REACTIVE FUNCTION, PROCESS FOR PREPARING SAME AND USES THEREOF IN DIFFERENT APPLICATIONS” (UNIVERSITE DE ROUEN-NORMANDIE, priority 2022, published 2025):

Tests used:
Spo20p-GFP = target: T1, Spo20p-GFP (Saccharomyces cerevisiae, UniProt Q04359); test: Recruitment of Spo20p-GFP to the plasma membrane of PC12 cells after incubation with GPL (confocal microscopy); type: cell-based; conditions: GPL 100 μM, 5 min incubation, PC12 cells expressing Spo20p-GFP, FIG. 1
T1 construct: expressed in transfected cells; host or cells: PC12 cells
T1 sequence (Q04359 51-91 limits assumed): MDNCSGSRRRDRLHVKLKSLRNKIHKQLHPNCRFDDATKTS
Description: This example illustrates the interaction between GPL (Ia) or (Ib) and a phosphatidic acid (PA) mobilizing protein, the green-fluorescent protein Spo20p-GFP, expressed in target cells.
For this purpose, GPL (Ia) and, for comparative purposes, a natural GPL PA 18:1-18:0 (referred to hereinbelow as GPL C1) sold under reference 840861C by Avanti Polar Lipids, are incubated for 5 min at a concentration of 100 μM, with PC12 cells expressing Spo20p-GFP.
Similarly, GPL (Ib) and, for comparative purposes, a natural GPL PA 18:2-18:0 (referred to hereinbelow as GPL C2) sold under reference 840862C by Avanti Polar Lipids, are incubated for 5 min at a concentration of 100 μM, with PC12 cells expressing Spo20p-GFP.
The GPL-free cell medium is used as a control (referred to hereinbelow as […]).
A marker referred to hereinbelow as Membright (obtained from Mayeul Collot UMR-7021, Strasbourg) is incubated for 5 minutes on cells in media as prepared above to specifically mark the cells' plasma membrane.

[1] = Formation of giant liposomes (96% DOPC / 4% GPL) by PVA-assisted swelling, light and confocal microscopy; type: physicochemical; conditions: liposomes 96% by mass DOPC and 4% by mass GPL, 1 mM, FIG. 3 and 4
Description: (§1) For this purpose, giant liposomes composed of 96% by mass of dioleoylphosphatidylcholine (DOPC) and 4% by mass of GPL (XIVa), and, for comparative purposes, giant liposomes composed of 96% by mass of dioleoylphosphatidylcholine (DOPC) and 4% by mass of a natural GPL modified with a nitrobenzadiazole-based fluorophore: PA 18:1-6:0 NBD sold under the reference 810175C by Avanti Polar Lipids, at a concentration of 1 mM, are prepared using the polyvinyl alcohol (PVA)-assisted swelling method as described in Carmon et al., FASEB J., 2020, 34:6769-6790).

CgA-AF633 = target: T2, CgA-AF633 (Homo sapiens, UniProt P10645); test: Interaction of CgA-AF633 protein with giant liposomes containing GPL (confocal microscopy); type: binding; conditions: CgA-AF633 4 μM, liposomes 96% DOPC / 4% GPL, FIG. 5
T2 sequence (P10645 19-457): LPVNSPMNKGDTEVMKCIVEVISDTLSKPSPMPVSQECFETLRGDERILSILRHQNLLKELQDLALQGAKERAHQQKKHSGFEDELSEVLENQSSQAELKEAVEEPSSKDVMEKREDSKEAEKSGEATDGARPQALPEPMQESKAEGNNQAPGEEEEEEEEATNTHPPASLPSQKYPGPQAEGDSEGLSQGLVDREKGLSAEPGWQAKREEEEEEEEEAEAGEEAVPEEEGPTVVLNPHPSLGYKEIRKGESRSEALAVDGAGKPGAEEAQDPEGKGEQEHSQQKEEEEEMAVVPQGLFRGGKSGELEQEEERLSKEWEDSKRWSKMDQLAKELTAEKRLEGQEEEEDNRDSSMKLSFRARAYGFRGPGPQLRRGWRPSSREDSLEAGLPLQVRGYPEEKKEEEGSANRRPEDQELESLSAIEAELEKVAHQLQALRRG
Source text: This example illustrates the interaction between GPL (XIVa), which fluoresces green (by means of a nitrobenzadiazole-based fluorophore), and a red-fluorescent phosphatidic acid (PA) mobilizing protein, CgA-AF633.
as §1
CgA, rendered red-fluorescent due to its coupling with the fluorophore Alexa 633 or AF633 (CgA-AF633), is incubated at 4 μM concentration with liposomes as prepared above. […]

Row | membrane deformations in the liposomes on incubation with CgA-AF633 (CgA-AF633) | SMILES | recruitment of the Spo20p-GFP protein to the plasma membrane (Spo20p-GFP) | participation in the formation of giant liposomes [1] | interaction of the CgA-AF633 protein with liposomes containing the GPL (CgA-AF633)
1 |  | CCCCCCCC/C=C\CCCCCCCC(=O)O[C@@H](COP(=O)(O)O)[C@H](CN=[N+]=[N-])OC(=O)CCCCCCCCCCCCCCCCC [GPL (Ia), (2S,3S)-4-azido-2-(oleoyloxy)-3-(stearoyloxy)butyl hydrogen phosphate] | bring about recruitment of the Spo20p-GFP protein to the plasma membrane of PC12 cells in the same manner as do the corresponding natural GPLs |  | 
2 | does result in membrane deformations | CCCCCCCC/C=C\CCCCCCCC(=O)O[C@@H](COP(=O)(O)O)[C@H](Cn1nnc2c1-c1ccccc1CN(C(=O)CCCCCNc1ccc([N+](=O)[O-])c3nonc13)c1ccccc1-2)OC(=O)CCCCCCCCCCCCCCCCC [GPL (XIVa), (2S,3S)-4-(8-(6-((7-nitrobenzo[c][1,2,5]oxadiazol-4-yl)amino)hexanoyl)-8,9-dihydro-1H-dibenzo[b,f][1,2,3]triazolo[4,5-d]azocin-1-yl)-1-(phosphonooxy)-3-(stearoyloxy)butan-2-yl oleate] |  | participates in the formation of giant liposomes | only interacts with liposomes containing GPL (XIVa)
